Values quoted from earlier work in patent US11426379B2, “Combination of local and systemic therapies for enhanced treatment of dermatologic conditions” (The Rockefeller University, priority 2017, dated 2022).

Test system: rabbit skin
Conditions: intradermal injection, presence of light, reversible with beta-carotene

In the case of O=C1OC2(c3cc(I)c(O)c(I)c3Oc3c2cc(I)c(O)c3I)c2c(Cl)c(Cl)c(Cl)c(Cl)c21 [rose bengal, 4,5,6,7-tetrachloro-2′,4′,5′,7′-tetraiodofluorescein], the “polymorphonuclear leukocyte accumulation, histamine release and erythema” value is listed as “polymorphonuclear leukocyte accumulation and histamine release with accompanying increased erythema”.
